Laboratory results from US20090124562A1, “Versipelostatin derivative, anti-cancer agent and processes for production of the derivative and agent” (TOUDAI TLO, LTD., priority 2005, published 2009).

What was measured:
HT 1080 cell [1] = test: MTT assay, cell survival rate (Example 8); type: cell-based; details: for cell survival rate (MTT assay): 24 hours
GRP 78 = test: Western blot of GRP 78 expression in HT 1080 cell (Examples 6, 7); type: cell-based; details: glucose-deficient condition, cultured 18 hours, FIGS. 5 to 8
From the text: In Example 6, the action of the VST derivative to inhibit expression of GRP 78 was studied by Western blot method. In the present experiment, the compounds prepared in Example 1 (the compounds having the chemical structure represented by “Formula 11” as the substituent group R^1 (n=3)) was used as the VST derivative.
Expression of GRP 78 is known to induce under glucose-deficient condition. Thus in the present experiment, the action of the VST derivative to induce or inhibit expression of GPR78 was studied both under glucose-deficient condition and also under normal condition.
The experiment was performed generally in the following manner: First, HT 1080 cell (cancer cell) was cultured in RPMI 1640 medium. […] Then, cultured cells were harvested, and GRP 78 expressed was detected by Western blotting with an anti-GRP 78 antibody.
Then, the cell was cultured in a similar manner and condition to those in Example 6, and GRP 78 expressed was detected by Western blotting by using an anti-GRP 78 antibody.

ICR mice = test: Acute toxicity experiment in mice (Example 13); type: in vivo; details: male ICR mice, tail vein injection
Method: The mice used were 7- to 8-week old male ICR mice (available from Charles River). VST or a VST derivative was administered to each mouse by tail vein injection, and the toxicity thereof was studied. In the present experiment, the VST biotin derivative prepared in Example 7 was used as the VST derivative.

HT 1080 cell [2] = test: Toxicity at the cell level, cell count at 100 μM (Examples 11, 12); type: cell-based
Method: HT 1080 cell was cultured in a 6-cm dish until the cells became 70% confluent, and VST or a VST derivative was added to a concentration of 10, 3, or 1 μM in the absence of glucose (in the glucose-deficient state), and the action thereof was studied.
In the present Example, the VST derivative prepared in Example 1 (the compounds having the chemical structure represented by “Formula 11” as the substituent group R^1 (n=3)) was used as the VST derivative. […] In the present Example, VST or the VST derivative was added at a concentration of 100 μM.
In the present Example, the culture cell was brought into the glucose-deficient state by addition of 2-deoxyglucose.
The three kinds of VST biotin derivatives prepared in Example 7 were used as the VST derivatives. In the present Example, VST or the VST derivative was added to a concentration of 100 μM, and 2-DG, to a concentration of 20 mM.

**Q.** Which “cell survival rate (MTT assay)” value (HT 1080 cell [1]; 20 mM 2-DG alone) does the source give for `O=CC[C@@H](O)[C@H](O)[C@H](O)CO` [Example 2-DG, 2-deoxyglucose] here?
**A.** approximately 50%

**Q.** With versipelostatin [VST] as the molecule, how does the “addition amount above which the cell survival rate declined significantly” value (HT 1080 cell [1]; 2-DG not added, MTT assay) read?
**A.** exceeded 25 μM

**Q.** What about the “cell survival rate (MTT assay)” value (HT 1080 cell [1]; 2-DG not added, increasing addition amount, derivatives = VST-Biotin, VST-Biotin-C6, VST-Biotin-C12) of the same molecule?
**A.** declined significantly

**Q.** What about the “cell survival rate (MTT assay)” value (HT 1080 cell [1]; with 20 mM 2-DG (glucose-deficient state), derivatives = VST-Biotin, VST-Biotin-C6, VST-Biotin-C12) of the same molecule?
**A.** around 30%

**Q.** And the “induction of GRP 78 expression (Western blot)” value (GRP 78)?
**A.** inhibited to some extent

**Q.** What about the “Number of dead animals (within 24 hours)” value (ICR mice; 6 mg/kg) of the same molecule?
**A.** 0

**Q.** And the “Number of dead animals (within 24 hours)” value (ICR mice; 9 mg/kg)?
**A.** 0

**Q.** And the “Number of dead animals (within 24 hours)” value (ICR mice; 12 mg/kg)?
**A.** 1

**Q.** And the “Number of dead animals (within 24 hours)” value (ICR mice; 15 mg/kg)?
**A.** 5

**Q.** And the “Number of dead animals (within 24 hours)” value (ICR mice; 18 mg/kg)?
**A.** 4

**Q.** What about the “Number of dead animals (within 24 hours)” value (ICR mice; 21 mg/kg) of the same molecule?
**A.** 4

**Q.** What about the “Number of dead animals (within 24 hours)” value (ICR mice; 30 mg/kg) of the same molecule?
**A.** 4

**Q.** What about the “dosage leading to death of all mice” value (ICR mice; summary of Table 1) of the same molecule?
**A.** more than 18 mg/kg

**Q.** And the cell death (HT 1080 cell [2]; Example 11: HT 1080 cell, glucose-deficient state)?
**A.** cell death

**Q.** And the cell count (HT 1080 cell [2]; Example 11: HT 1080 cell, normal culture environment (glucose present))?
**A.** significant decrease in cell count

**Q.** What about the cell death (HT 1080 cell [2]; Example 12: HT 1080 cell, glucose-deficient state by 2-DG 20 mM, three VST biotin derivatives of Example 7) of the same molecule?
**A.** cell death

**Q.** And the cell count (HT 1080 cell [2]; Example 12: HT 1080 cell, normal culture environment, three VST biotin derivatives of Example 7)?
**A.** significant drop in cell count
